From patent US12480163B2, “Compositions and methods for identification assessment, prevention, and treatment of Ewing sarcoma using TP53 dependency biomarkers and modulators” (Dana-Farber Cancer Institute, Inc., priority 2018, dated 2025)
Entries after “also recorded” stand apart in the source; their conditions may differ.

How the values were obtained:
p53-MDM4 complex = target: T1, p53-MDM4 complex (Homo sapiens, UniProt O15151); experiment: MDM4 immunoprecipitation from TC32 cell lysates, p53 and MDM4 Western blot; format: binding; details: TC32 lysates after RG7388 pre-treatment, 20 μM compound
T1 construct: endogenous in cells; host or cells: TC32 Ewing sarcoma cells (TP53 wild-type), lysed in NP-40 buffer
T1 sequence (O15151 1-490): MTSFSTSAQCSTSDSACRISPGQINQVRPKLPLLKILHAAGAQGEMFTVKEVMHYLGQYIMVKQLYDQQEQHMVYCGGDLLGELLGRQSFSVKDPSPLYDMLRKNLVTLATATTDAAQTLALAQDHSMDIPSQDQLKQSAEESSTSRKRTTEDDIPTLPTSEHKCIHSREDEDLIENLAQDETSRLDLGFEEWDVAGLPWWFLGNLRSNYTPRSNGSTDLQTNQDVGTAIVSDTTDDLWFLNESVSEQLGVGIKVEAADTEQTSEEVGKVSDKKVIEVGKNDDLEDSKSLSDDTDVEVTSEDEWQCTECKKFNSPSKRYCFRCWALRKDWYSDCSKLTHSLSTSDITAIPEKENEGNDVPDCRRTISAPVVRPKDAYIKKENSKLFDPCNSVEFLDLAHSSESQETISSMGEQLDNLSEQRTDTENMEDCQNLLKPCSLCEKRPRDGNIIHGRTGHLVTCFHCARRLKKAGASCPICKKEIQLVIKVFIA
Protocol: g. Immunoprecipitation Experiments
Five million TC32 cells were treated with either 10 μM RG7388 or vehicle control for 4 h. Cells were lysed in buffer A (150 mM NaCl, 50 mM Tris, and 0.5% NP-40, pH 7.4) and combined with anti-MDM4 antibody (A300-287A; Bethyl Laboratories) in the presence of 20 μM RG7388, ATSP-7041, or vehicle control in a total volume of 1 ml, rotating at 4° C. for 16 h. Subsequently, 50 μl washed Protein AG beads (sc-2003; Santa Cruz) were added and the mixture was incubated for 1 h rotating at 4° C. Beads were washed three times in buffer A, and protein complexes were eluted by boiling in NuPage® LDS Sample Buffer (NP0007; Invitrogen) supplemented with DTT. Samples were analyzed by Western blot with antibodies against p53 DO-1 (sc-126; Santa Cruz) and MDM4 (A300-287A; Bethyl Laboratories).

PDX tumor tissues = experiment: Pharmacodynamics study in PDX tumor tissue (Western blot, quantitative PCR); format: in vivo, mice; details: PDX HSJD-ES-002, three doses 30 mg/kg q.o.d.
Protocol: Whole-cell lysates were extracted in cell lysis buffer (Cell Signaling) supplemented with EDTA-free protease inhibitors and PhosSTOP™ phosphatase inhibitors (Roche). Western immunoblotting was performed using standard techniques. Primary antibodies used included anti-MDM2 (ab178938; Abcam), anti-MDM2 (86934; Cell Signaling), anti-MDM4 (A300-287A; Bethyl Laboratories), anti-p53 (2527S; Cell Signaling), anti-p21 (2946S; Cell Signaling), anti-Vinculin (18058; Abcam), anti-Wip1 (A300-664A; Bethyl Laboratories), anti-pSer15-p53 (9284; Cell Signaling), anti-USP7 (A300-033A; Bethyl Laboratories), and anti-Tubulin (cp06; CalBiochem).
RNA was extracted from cells with the RNeasy® kit and on-column DNA digestion (Qiagen). cDNA was prepared using M-MLV reverse transcription (ThermoFisher Scientific). TaqMan™ Gene Expression Master Mix (Applied Biosystems) was used per the manufacturer's protocol. TaqMan™ probes included RPL13A (Hs04194366_g1; ThermoFisher Scientific), CDKNIA (Hs00355782_m1; Thermo Fisher Scientific), and MDM2 (Hs01066930_m1; ThermoFisher Scientific). Data were collected in triplicate and analyzed using the ΔΔCT method.
For pharmacodynamics studies, tumor xenografts were established in six nude female mice by implanting three million TC32 cells or PDX tumor fragments into the right flank. Animals were randomized to either ATSP-7041 (n=3) or vehicle treatment (n=3). […]

[1] = test system: TC32, TC138, and CHLA258 cells; experiment: Drug synergy analysis, Chou-Talalay combination index for Loewe additivity; format: cell-based; details: CI<1 synergistic; for combination index, ATSP-7041 combined with P5091: CI>1 antagonistic
Protocol: Cell viability was assessed using the CellTiter-Glo® Luminescent Cell Viability Assay (Promega). Viability assays were performed after Ewing sarcoma cell lines were infected with sgRNAs targeting TP53, MDM2, MDM4, PPM1D, or USP7 or treated with ATSP-7041, ATSP-7342, GSK2830371, P5091, XL-188, or vehicle control.
k. Drug Synergy Analysis Chou-Talalay Combination Index for Loewe Additivity
Loewe Additivity is a dose-effect approach that estimates the effect of combining two drugs based on the concentration of each individual drug that produces the same quantitative effect (Goldoni and Johansson (2007) Toxicol. In Vitro 21:759-769). […] They introduced the combination index (CI) scores to estimate the interaction between the two drugs. If CI<1, the drugs have a synergistic effect, and if CI>1, the drugs have an antagonistic effect. CI=1 means the drugs have an additive effect.

PDX tumors (HSJD-ES-002) = experiment: Ewing sarcoma PDX (HSJD-ES-002) anti-tumor efficacy study; format: in vivo, mice
Protocol: j. Ewing Sarcoma Xenograft Studies
For anti-tumor efficacy studies, tumor xenografts were established in 15 nude female mice by implanting three million TC32 cells into the right flank. Animals were randomized to either 20 d of treatment with 30 mg/kg q.o.d. IV ATSP-7041 (n=8) or vehicle (n=7) for a total of 10 doses. Treatment was started when tumors reached 100-200 mm3. Tumor volumes were measured with calipers twice a week. For PDX studies, tumor fragments were implanted into the right flank of nude female mice by minor surgery. After tumor engraftment, studies were performed as described for TC32 xenograft studies.
For in vivo studies, ATSP-7041 was prepared using the following protocol: mPEG-DSPE (Nanocs) was dissolved in chloroform and dried by a rotary evaporator. ATSP-7041 was dissolved in 1 M NaOH and diluted 100-fold in 10 mM histidine-buffered saline to a final concentration of 3 mg/ml. This mixture was added to the dried lipid film to a final mPEG-DSPE concentration of 50 mg/ml and final pH 7. The film was rehydrated by brief sonication and heating in a 50° C. water bath. The mixture was then subjected to five freeze-thaw cycles in liquid nitrogen and 40° C. water, respectively, and the solution passed 10 times through an Avanti Mini-Extruder Set (Avanti Polar Lipids) equipped with a 800-nm filter (Whatman).

[2] = TC32, TC138, CHLA258, 3 d, CI=1 additive

CC(=O)N[C@@H](CC(C)C)C(=O)N[C@H](C(=O)N[C@@H](Cc1ccccc1)C(=O)N[C@]1(C)CCCCCCC=CCCC[C@@](C)(C(=O)N[C@@H](CO)C(=O)N[C@@H](C)C(=O)N[C@@H](C)C(N)=O)NC(=O)[C@H](CC2CCC2)NC(=O)[C@H](CCC(N)=O)NC(=O)[C@H](C)NC(=O)[C@H](Cc2c[nH]c3ccccc23)NC(=O)[C@H](Cc2ccc(O)cc2)NC(=O)[C@H](CCC(=O)O)NC1=O)[C@@H](C)O [ATSP-7041, Ac-Leu17-Thr-Phe-cyclo(R8-Glu-Tyr-Trp-Ala-Gln-Cba-S5)-Ser-Ala-Ala30-NH2]
disruption of p53-MDM4 complex (MDM4 immunoprecipitation) (p53-MDM4 complex): partial disruption of p53-MDM4 complex; also recorded: decreased the level of p53-MDM4 interaction
p53 pathway protein levels in tumor tissue (PDX tumor tissues; 8 h after last dose): increase of MDM2, p53, and p21 protein levels; also recorded: increased intratumoral p53 and p21 protein levels
MDM2 and p21 mRNA levels in tumor tissue (PDX tumor tissues; quantitative PCR): increase of MDM2 mRNA levels; also recorded: increase of p21 mRNA levels; also recorded: increased MDM2 and p21 mRNA levels
combination index, ATSP-7041 combined with P5091 ([1]; CHLA258, 5 d, CI=1 additive): additivity
combination index, ATSP-7041 combined with doxorubicin [1, 2]: additivity or synergy
combination index, ATSP-7041 combined with etoposide [1, 2]: additivity or synergy
combination index, ATSP-7041 combined with vincristine [1, 2]: additivity or synergy
combination index, ATSP-7041 combined with GSK2830371 ([1]; TC32, TC138, and CHLA258, 3 d): strong synergy
combination index, ATSP-7041 combined with P5091 ([1]; TC32 and TC138, 5 d, CI=1 additive): synergy
survival of mice (PDX tumors (HSJD-ES-002); PDX HSJD-ES-002, 10 doses 30 mg/kg q.o.d. vs vehicle): significantly extended
tumor growth (normalized tumor volume) (PDX tumors (HSJD-ES-002); PDX HSJD-ES-002, 10 doses 30 mg/kg q.o.d. vs vehicle, 30 mg/kg): slowed significantly; also recorded: slowed in all mice
complete tumor regression (PDX tumors (HSJD-ES-002); PDX HSJD-ES-002, one mouse of n=8, observed time frame of 227 d): complete tumor regression without recurrence; also recorded: one out of eight mice achieved complete and sustained remission of disease
